Source: patent publication US20230072854A1, “PARAXANTHINE-BASED BIOACTIVE COMPOSITION AND METHOD OF USE THEREOF” (Ingenious Ingredients, LP, priority 2020, published 2023)

Columns and labels:
[1] = Toxicity, LD50; conditions: in vivo
[2] = test system: volunteers; test: Berg-Washington Card Sorting Task Test (BCST), double blind crossover vs placebo; type: in vivo, human; conditions: 200 mg
Text: (§1) In a double blind, randomized, crossover, and repeated measures manner, 13 volunteers (10 male, 3 female, average age 24±5 years, average body weight 72.91±19.30 kg, average height 169.96±11.84 cm, average BMI 24.80±3.71 kg/m^2) participated in this study. Participants limited ingestion of caffeine and other stimulants to normal use for 48-hours, fasted for 8-hours and reported to the lab and completed 4 different cognitive function tests to assess short-term attention and inhibitory control (Go-No Go Test), sustained attention (Vigilance Task Test), working memory (Sternberg Task Test) and cognitive flexibility (Berg-Washington Card Sorting Test). Once completed, the participants ingested either a placebo or 200 mg of paraxanthine (WGI, TX, USA) with 8 ounces of water. Participants repeated cognitive function tests 1, 2, 3, 4, 5, and 6 hours after ingestion of the supplement. After one-week participants repeated the experiment while consuming the other treatment.
(§2) Data were analyzed by a General Linear Model multivariate and univariate analyses with repeated measures using body weight as a covariate. Data are expressed as means±standard deviations for the placebo (PLA) and Paraxanthine (PrX). Greenhouse-Geisser univariate p-levels are listed for time (T), weight×time (W×T) and group×time (G×T) interactions effects. Pairwise comparison is indicated by the following superscripts: †=[…] difference from baseline value; *=[…] difference from baseline; a=[…] difference between groups; b=[…] difference between groups. Eta2 vaules of […] are considered small, […] medium, and >0.14 are considered large.
Berg-Washington Card Sorting Task Test is a test of basic cognitive flexibility or set-shifting between old/new rule changes. The test involves reasoning, learning, executive control and attention shifting. It is particularly sensitive to the inability to shift set. Less errors means subjects were able to both recognize and ‘shift’ to a new rule with higher ability. […]

[3] = test system: volunteers; test: Psychomotor vigilance task test, double blind crossover vs placebo; type: in vivo, human; conditions: 200 mg
Text: as §1, §2
The psychomotor vigilance task test is a sustained attention, reaction timed task that measures the speed with which participants respond to a visual stimulus. Lower Reaction time, especially maintained throughout this many tests represents better ability to sustain attention.

[4] = Mean (SEM) over all hours, listed as PrX

Cn1c(=O)[nH]c2ncn(C)c2c1=O [paraxanthine, 1,7-dimethylxanthine]
LD50 [1]: 1600 mg/kg
number of correct answers in BCST, in words [2]: significantly increased
number of errors in BCST, in words [2]: reducing the number of errors
perseverative errors PEBL (FIG. 3) [2]: no significant time or between treatment effects
BCST Correct Response ([2]; Mean (SEM) over all hours): 97.3
BCST Errors ([2]; Mean (SEM) over all hours): 18.0
BCST Perseverative Errors (PAR rules) ([2]; Mean (SEM) over all hours): 8.7 ± 1.6
BCST Perseverative Errors (PEBL) ([2]; Mean (SEM) over all hours): 12.7 ± 1.2
BCST Correct Response [2, 4]: 102.5 ± 3.4
BCST Errors [2, 4]: 18.0 ± 3.9
change in correct answers after 6 hours ([2]; after 6 hours): +1.9
change in errors after 6 hours ([2]; after 6 hours): −0.6
correct responses adjusted for differences in baseline values ([2]; baseline-adjusted): 2.5
errors adjusted for differences in baseline values ([2]; baseline-adjusted): −1.5
less errors than placebo, adjusted for differences in baseline values ([2]; baseline-adjusted, vs placebo): 600%
more correct responses than placebo, adjusted for differences in baseline values ([2]; baseline-adjusted, vs placebo): 150%
BCST Correct Response ([2]; hour 0 (before ingestion)): 100.0 ± 6.6
BCST Errors ([2]; hour 0 (before ingestion)): 19.5 ± 6.6
BCST Perseverative Errors (PAR rules) ([2]; hour 0 (before ingestion)): 10.1 ± 4.6
BCST Perseverative Errors (PEBL) ([2]; hour 0 (before ingestion)): 13.7 ± 5.0
BCST Correct Response ([2]; hour 1 after ingestion): 101.4 ± 3.6
BCST Errors ([2]; hour 1 after ingestion): 18.1 ± 4.3
BCST Perseverative Errors (PAR rules) ([2]; hour 1 after ingestion): 8.8 ± 2.1
BCST Perseverative Errors (PEBL) ([2]; hour 1 after ingestion): 12.5 ± 3.0
BCST Correct Response ([2]; hour 2 after ingestion): 104.3
BCST Errors ([2]; hour 2 after ingestion): 16.8
BCST Perseverative Errors (PAR rules) ([2]; hour 2 after ingestion): 7.8
BCST Perseverative Errors (PEBL) ([2]; hour 2 after ingestion): 12.3
number of correct responses (FIG. 1) ([2]; hour 2 and 4 over baseline): significantly (p<0.5) increased
BCST Correct Response ([2]; hour 3 after ingestion): 100.6 ± 5.8
BCST Errors ([2]; hour 3 after ingestion): 17.0 ± 3.9
BCST Perseverative Errors (PAR rules) ([2]; hour 3 after ingestion): 8.5 ± 2.9
BCST Perseverative Errors (PEBL) ([2]; hour 3 after ingestion): 12.3 ± 3.2
number of correct responses between groups (FIG. 1) ([2]; hour 4, between groups): showed a trend (p<0.1) between groups
BCST Correct Response ([2]; hour 4 after ingestion): 106.4
BCST Errors ([2]; hour 4 after ingestion): 19.0
BCST Perseverative Errors (PAR rules) ([2]; hour 4 after ingestion): 8.6
BCST Perseverative Errors (PEBL) ([2]; hour 4 after ingestion): 13.3
BCST Correct Response ([2]; hour 5 after ingestion): 101.5 ± 4.0
BCST Errors ([2]; hour 5 after ingestion): 18.5 ± 4.2
BCST Perseverative Errors (PAR rules) ([2]; hour 5 after ingestion): 8.8 ± 3.6
BCST Perseverative Errors (PEBL) ([2]; hour 5 after ingestion): 13.1 ± 3.6
perseverative errors PAR between groups (FIG. 4) ([2]; hour 6, between groups): trend (p<0.1) towards less errors between groups
BCST Correct Response ([2]; hour 6 after ingestion): 103.5
BCST Errors ([2]; hour 6 after ingestion): 16.3
BCST Perseverative Errors (PAR rules) ([2]; hour 6 after ingestion): 8.1
BCST Perseverative Errors (PEBL) ([2]; hour 6 after ingestion): 11.7
errors compared to baseline (FIG. 2) ([2]; hour 6 vs baseline): trend (p<0.1) towards less error
less errors than placebo, overall ([2]; overall, vs placebo): 23.7%
more correct responses than placebo, overall ([2]; overall, vs placebo): 5.3%
Trial #2 reaction time (FIG. 11) [3]: maintained reaction time
Trial #10 reaction time (FIG. 12) [3]: no significant time or between treatment differences
effect on average reaction times in the vigilance task test [3]: no effect
Reaction Time (milliseconds) Average ([3]; Mean (SEM) over all hours): 2,550 milliseconds
Reaction Time (milliseconds) Trial #2 ([3]; Mean (SEM) over all hours): 2,659 milliseconds
Reaction Time (milliseconds) Trial #10 ([3]; Mean (SEM) over all hours): 2,639 milliseconds
Reaction Time (milliseconds) Trial #20 ([3]; Mean (SEM) over all hours): 2,590 milliseconds
Reaction Time (milliseconds) Average ([3]; hour 0 (before ingestion)): 2,546 milliseconds
Reaction Time (milliseconds) Trial #2 ([3]; hour 0 (before ingestion)): 2,601 milliseconds
Reaction Time (milliseconds) Trial #10 ([3]; hour 0 (before ingestion)): 2,607 milliseconds
Reaction Time (milliseconds) Trial #20 ([3]; hour 0 (before ingestion)): 2,680 milliseconds
Reaction Time (milliseconds) Average ([3]; hour 1 after ingestion): 2,552 milliseconds
Reaction Time (milliseconds) Trial #2 ([3]; hour 1 after ingestion): 2,602 milliseconds
Reaction Time (milliseconds) Trial #10 ([3]; hour 1 after ingestion): 2,418 milliseconds
Reaction Time (milliseconds) Trial #20 ([3]; hour 1 after ingestion): 2,458 milliseconds
Reaction Time (milliseconds) Average ([3]; hour 2 after ingestion): 2,508 milliseconds
Reaction Time (milliseconds) Trial #2 ([3]; hour 2 after ingestion): 3,005 milliseconds
Reaction Time (milliseconds) Trial #10 ([3]; hour 2 after ingestion): 2,651 milliseconds
Reaction Time (milliseconds) Trial #20 ([3]; hour 2 after ingestion): 2,220 milliseconds
Reaction Time (milliseconds) Average ([3]; hour 3 after ingestion): 2,559 milliseconds
Reaction Time (milliseconds) Trial #2 ([3]; hour 3 after ingestion): 2,591 milliseconds
Reaction Time (milliseconds) Trial #10 ([3]; hour 3 after ingestion): 2,788 milliseconds
Reaction Time (milliseconds) Trial #20 ([3]; hour 3 after ingestion): 2,445 milliseconds
Reaction Time (milliseconds) Average ([3]; hour 4 after ingestion): 2,538 milliseconds
Reaction Time (milliseconds) Trial #2 ([3]; hour 4 after ingestion): 3,005 milliseconds
Reaction Time (milliseconds) Trial #10 ([3]; hour 4 after ingestion): 2,412 milliseconds
Reaction Time (milliseconds) Trial #20 ([3]; hour 4 after ingestion): 2,792 milliseconds
Reaction Time (milliseconds) Average ([3]; hour 5 after ingestion): 2,570 milliseconds
Reaction Time (milliseconds) Trial #2 ([3]; hour 5 after ingestion): 2,441 milliseconds
Reaction Time (milliseconds) Trial #10 ([3]; hour 5 after ingestion): 2,783 milliseconds
Reaction Time (milliseconds) Trial #20 ([3]; hour 5 after ingestion): 2,544 milliseconds
Reaction Time (milliseconds) Average ([3]; hour 6 after ingestion): 2,577 milliseconds
Reaction Time (milliseconds) Trial #2 ([3]; hour 6 after ingestion): 2,360 milliseconds
Reaction Time (milliseconds) Trial #10 ([3]; hour 6 after ingestion): 2,813 milliseconds
Reaction Time (milliseconds) Trial #20 ([3]; hour 6 after ingestion): 3,005 milliseconds
